Data taken from paper PMC11492034, “The MRGPRX2-substance P pathway regulates mast cell migration” (iScience, 2024).

Key:
MC progenitors = details: LTB4: ref 38, 40, 42; PGE2: no ref at this clause; cited from earlier work
asthmatic subjects = details: cited from earlier work
neurokinin 1 receptor = details: 100 nM aprepitant, SP 0.03-10, immature mast cells, n=1
Description: Chemotaxis assays were carried out using 8 μm pore ChemoTX™ assay plates (Neuroprobe, Gaithersburg, USA). Cells were first loaded with 5 μM Calcein-AM for 30 mins, 37°C/5% CO2 in cell culture medium prior to being washed and resuspended at a concentration of 1 x 10^6.ml^-1. Where appropriate cells were pre-incubated with Compound A or vehicle control. Chemoattractants were prepared in cell culture medium and placed in the lower chamber. The plate was constructed and 50 μl cell suspension applied to the upper part of the membrane of each well. No chemoattractant and equal chemoattractant on both sides of the chamber were used to control for random cell movement. The plate was incubated for 6 hours 37°C/5% CO2 before analysis of migrated cells, as follows. Cells were removed from above the membrane by pipetting, the membrane was then washed with PBS buffer containing 2mM EDTA and wiped using a rubber filter wiper (Neuroprobe). PBS/EDTA was applied to the upper side of the membrane and the plate incubated for 30 mins at 4°C before again being wiped. The plate was then centrifuged at 500 x g for 5 mins to capture cells attached to the underside of the membrane. […] Total migrated cells were counted as Live/Dead™-/Calcein-AM+/CD117+ cells or Live/Dead™-/Calcein-AM+ cells in each sample. […]

MRGPRX2 [1] = target: T1, MRGPRX2 (Homo sapiens, UniProt Q96LB1); details: 15 min; 1 µM (PACAP1-38, PACAP1-27, PAMP9-20, VIP) or 10 µM (CGRP); concentration response 0.01-100 µM, n=1 of a mix of 2 donors
T1 sequence (Q96LB1 whole entry): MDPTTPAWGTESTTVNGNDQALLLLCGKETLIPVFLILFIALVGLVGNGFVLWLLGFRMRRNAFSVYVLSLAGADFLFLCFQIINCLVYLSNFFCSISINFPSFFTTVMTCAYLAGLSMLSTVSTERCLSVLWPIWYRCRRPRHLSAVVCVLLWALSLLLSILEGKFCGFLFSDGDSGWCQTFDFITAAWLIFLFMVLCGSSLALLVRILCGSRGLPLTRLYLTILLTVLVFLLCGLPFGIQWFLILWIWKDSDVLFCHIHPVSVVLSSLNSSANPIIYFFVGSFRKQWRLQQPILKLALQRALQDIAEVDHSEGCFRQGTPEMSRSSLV
Description: Degranulation was assessed by labelling of externalised CD63 (clone H5C6) as previously established[3] in response to substance P (Genscript, Oxford, UK), IgE/anti-IgE, anti-FcεRIα (clone AER37, Biolegend, London, UK) or C3a (CompTech, Tyler, USA). In all cases, cells were washed in PBS prior to incubation with live/dead™ reagent before analysis. […] Fc blocking reagent and antibodies were added, diluted in 1x permeabilisation buffer (BD Bioscience, Winnersh, UK), cells were washed and incubated with goat anti-mouse polyclonal antibodies labelled with PE or APC (Biolegend, London, UK). All cells were analysed on FACSymphony A5 or LSRFostessa instruments, and FlowJo software (BD Bioscience, Winnersh, UK). CD63 externalisation was used as a surrogate for MC degranulation according to established methodology.[52]^,[53]^,[54]
Putative MRGPRX2 ligand activation of MRGPRX2 positive cells.
(A) Gating showing degranulation, as measured by CD63 externalisation (x-axis), vs MRGPRX2 expression (y-
axis) after 15 mins of treatment with labelled agonists at 1µM (PACAP1-38, PACAP1-27, PAMP9-20, VIP) or
Percentage of cells in each quadrant is shown.
(B) Degranulation of mast cells in response to agonists (0.01-100 µM) after 15 minutes of application, as
shown. Data are n=1 of a mix of 2 donors.

MRGPRX2 [2] = target: T1, MRGPRX2; details: cited from earlier work

CCCCC/C=C\C[C@@H](O)/C=C/C=C/C=C\[C@@H](O)CCCC(=O)O [LTB4]
effect on MC migration (MC progenitors): known to attract MC progenitors, recruiting them from the circulation, and lose its effect upon MC maturation

CCCCC[C@H](O)/C=C/[C@H]1[C@H](O)CC(=O)[C@@H]1C/C=C\CCCC(=O)O [PGE2]
effect on MC migration (MC progenitors): more prone to regulating cell movement within the tissue

CSCC[C@H](NC(=O)[C@H](CC(C)C)NC(=O)CNC(=O)[C@H](Cc1ccccc1)NC(=O)[C@H](Cc1ccccc1)NC(=O)[C@H](CCC(N)=O)NC(=O)[C@H](CCC(N)=O)NC(=O)[C@@H]1CCCN1C(=O)[C@H](CCCCN)NC(=O)[C@@H]1CCCN1C(=O)[C@@H](N)CCCN=C(N)N)C(N)=O [SP]
bronchoconstriction in asthmatic subjects (asthmatic subjects): does not induce bronchoconstriction

C[C@@H](O[C@H]1OCCN(Cc2n[nH]c(=O)[nH]2)[C@H]1c1ccc(F)cc1)c1cc(C(F)(F)F)cc(C(F)(F)F)c1 [aprepitant]
inhibition of SP-induced chemotaxis (neurokinin 1 receptor): did not

CGRP
CD63 degranulation, neuropeptide (MRGPRX2 [1]): minimal effect

LL-37
binding to MRGPRX2 (MRGPRX2 [2]): binds

PAMP-20
binding to MRGPRX2 (MRGPRX2 [2]): binds

cortistatin-14
binding to MRGPRX2 (MRGPRX2 [2]): binds
